# US8778298B2, “Isotope labeled 2-arylpropionic acid compounds and process for production of same, and molecular probe for positron emission tomography and method for imaging of cyclooxygenase and the like using same” (Riken, priority 2009, dated 2014)
# Experiments:
# Format in all cases: in vivo
# [1] = system: cyclooxygenase-2; test: PET imaging using brain inflammation model rat (LPS injected into left striatum)
# Method: PET was performed using a brain inflammation model rat for the [^11C]ketoprofen methyl ester (8) synthesized in Example 6. In the experiment, a trace amount, 0.5 μg, of lipopolysaccharide (LPS) that is a constituent of a gram-negative bacteria cell wall outer membrane was injected into the left striatum of a rat, thereby inducing brain inflammation (Hunter R L, Dragicevic N, Seifert K, Choi D Y, Liu M, Kim H C, Cass W A, Sullivan P G, Bing G. Inflammation induces mitochondrial dysfunction and dopaminergic neurodegeneration in the nigrostriatal system. J. Neurochem. 2007100:5:1375-86.). The [^11C]ketoprofen methyl ester (8) was administered to a rat after 1 day from injection of LPS through a caudal vein, PET was performed for 45 minutes using a PET apparatus for small animals (manufactured by microPET, SIMENS). The injection solution of the [^11C]ketoprofen methyl ester (radioactivity 72 to 74 MBq) was prepared by diluting with saline to 1.0 CC volume. In order to further study an effect of inhibiting bonds by a non-RI labeled body, an injection solution added with 10 mg/kg of ketoprofen methyl ester (final concentration of a solvent was 5% DMSO, 5% tween20) was prepared. On completion of PET imaging, a rat brain section was prepared and an Ex vivo autoradiography (ARG) experiment was performed. In the experiment, the rat was perfused with saline, and a section prepared with 2 mm thickness, which was obtained from the brain taken out from the rat, was exposed on an imaging plate BAS SR-2040 (manufactured by Fujifilm Corporation) for 1 hour to read using a fluoroimage analyzer (FLA7000). In order to identify an expression site of cyclooxygenase-2, chemical staining of an immune tissue in a brain section was performed using a specific antibody. That is, 20 μm of a frozen section prepared from the brain section used in the autoradiography mentioned above and pasted on a slide glass was incubated with anti-cyclooxygenase-2 (rabbit IgG, polyclonal antibody, manufactured by Cayman) diluted to PBS-T at a concentration of 200 times as a primary antibody at 4° C. overnight. […]
# [2] = system: cyclooxygenase-2; test: Ex vivo autoradiography (ARG) of rat brain section after PET, compared with cyclooxygenase-2 immunostaining
# Method: PET was performed using a brain inflammation model rat for the [^11C]ketoprofen methyl ester (8) synthesized in Example 6. In the experiment, a trace amount, 0.5 μg, of lipopolysaccharide (LPS) that is a constituent of a gram-negative bacteria cell wall outer membrane was injected into the left striatum of a rat, thereby inducing brain inflammation (Hunter R L, Dragicevic N, Seifert K, Choi D Y, Liu M, Kim H C, Cass W A, Sullivan P G, Bing G. Inflammation induces mitochondrial dysfunction and dopaminergic neurodegeneration in the nigrostriatal system. J. Neurochem. 2007100:5:1375-86.). The [^11C]ketoprofen methyl ester (8) was administered to a rat after 1 day from injection of LPS through a caudal vein, PET was performed for 45 minutes using a PET apparatus for small animals (manufactured by microPET, SIMENS). The injection solution of the [^11C]ketoprofen methyl ester (radioactivity 72 to 74 MBq) was prepared by diluting with saline to 1.0 CC volume. […] In the experiment, the rat was perfused with saline, and a section prepared with 2 mm thickness, which was obtained from the brain taken out from the rat, was exposed on an imaging plate BAS SR-2040 (manufactured by Fujifilm Corporation) for 1 hour to read using a fluoroimage analyzer (FLA7000). […]
# [3] = system: APP-Tg mouse brain; test: PET imaging of Alzheimer disease model animal (APP-Tg mouse vs wild type mouse)
# Source text: PET images were taken using an Alzheimer disease model mouse for the [^11C]ketoprofen methyl ester (21) synthesized in Example 6. For the Alzheimer disease model mouse, a transgenic mouse (APP-Tg) excessively expressing amyloid precursor protein (APP) in familial Alzheimer disease was purchased from Taconic Farms, Inc. USA to be used. In 24 months old when accumulation of amyloid β protein was confirmed as pathological change of Alzheimer disease, the [^11C]ketoprofen methyl ester (21) was administered through a caudal vein, and PET images were taken for 30 minutes using a PET apparatus for small animals (microPET, manufactured by SIMENS). The injection solution of the [^11C]ketoprofen methyl ester (21) (radioactivity 45 to 60 MBq) was prepared by diluting with saline to 1.0 CC volume. SUV (Standard Uptake Value)=tissue radioactivity in region of interest (MBq/g)÷[administration amount (MBq)/body weight (g)] was used as the index of an accumulation level, to compare with a brain of a wild type mouse that is a normal mouse in terms of an accumulation amount into the APP-Tg mouse brain.
smiles,measurement,setting,value
"COC(=O)C([11CH3])c1cccc(C(=O)c2ccccc2)c1 (stereo not shown) [[^11C]ketoprofen methyl ester (8), [^11C]ketoprofen methyl ester]",accumulation in inflammation region with co-administered non-RI labeled ketoprofen methyl ester (specificity),[1]; 10 mg/kg of non-RI labeled ketoprofen methyl ester added to injection solution,significantly reduced
same,passage through the blood-brain barrier (PET),"[1]; rat 1 day after 0.5 μg LPS into left striatum, tracer via caudal vein, PET 45 minutes",passed through the blood-brain barrier
same,accumulation of radioactivity in brain (addition average of PET images),"[1]; rat 1 day after LPS into left striatum, tracer via caudal vein, 45 minutes after administration",accumulated in an inflammation region around the LPS injected site in the left side of the brain
same,accumulation in ex vivo autoradiography (ARG) of rat brain section,"[2]; 2 mm brain section taken on completion of PET imaging, LPS rat",accumulated specifically in an inflammation site
same,accumulated site versus immunostaining of cyclooxygenase-2,"[2]; 20 μm frozen section from ARG brain section, anti-cyclooxygenase-2 antibody, DAB method",correspond with a positive site of immunostaining of cyclooxygenase-2
same,"accumulation amount (SUV) in brain, APP-Tg versus wild type mouse","[3]; 24 months old APP-Tg mouse, caudal vein, PET images in 25 minutes after 5 minutes from administration",highly accumulated in the APP-Tg mouse brain as compared with the wild type mouse brain
same,site of high accumulation versus reported site of amyloid β accumulation,"[3]; APP-Tg mouse brain, compared with literature report (Am J Pathol. 1998)",corresponded with a site that was reported of accumulation of amyloid β
